Assay results as given in patent publication US4421687A, “Macbecin derivatives” (priority 1981, dated 1983).
In brackets after ≈: the same amount, converted by molar mass.

Experiments:
Bacillus subtilis = assay: antibacterial activity (MIC) against Bacillus subtilis; type: cell-based
Staphylococcus aureus = assay: antibacterial activity (MIC) against Staphylococcus aureus; type: cell-based
[1] = acute toxicity (LD50), mouse, intraperitoneal; type: in vivo

| MIC (Bacillus subtilis) [µg/mL] | MIC (Staphylococcus aureus) [µg/mL] | Structure (SMILES) | LD50 ([1]; in vivo, ip, intraperitoneal, acute toxicity) [mg/kg] | acute toxicity as compared with Macbecin I and II ([1]; intraperitoneal, compared with Macbecin I and II) | acute toxicity (in words) ([1]; ip, conclusion from the LD50) |
| --- | --- | --- | --- | --- | --- |
| 50 to 100 (≈ 91.8 to 184 µM) | 50 to 100 (≈ 91.8 to 184 µM) | COC1CC(C)C(OC)C2=CC(=O)C=C(NC(=O)C(C)=CC=CC(C)C(OC(N)=O)C(C)=CC(C)C1O)C2=O (centres unmarked) [E-3] | – | – | – |
| 50 to 100 (≈ 91.8 to 184 µM) | 50 to 100 (≈ 91.8 to 184 µM) | COC1C2=CC(=O)C=C(NC(=O)C(C)=CC=CC(C)C(OC(N)=O)C(C)=CC(C)C(OC)C(O)CC1C)C2=O (centres unmarked) [E-5] | – | – | – |
| 50 to 100 (≈ 91.5 to 183 µM) | 50 to 100 (≈ 91.5 to 183 µM) | COC1CC(C)C(OC)c2cc(O)cc(c2O)NC(=O)C(C)=CC=CC(C)C(OC(N)=O)C(C)=CC(C)C1O (centres unmarked) [E-3-R] | – | – | – |

| Structure (SMILES) | MIC (Bacillus subtilis) [µg/mL] | MIC (Staphylococcus aureus) [µg/mL] | LD50 ([1]; in vivo, ip, intraperitoneal, acute toxicity) [mg/kg] | acute toxicity as compared with Macbecin I and II ([1]; intraperitoneal, compared with Macbecin I and II) | acute toxicity (in words) ([1]; ip, conclusion from the LD50) |
| --- | --- | --- | --- | --- | --- |
| COC1c2cc(O)cc(c2O)NC(=O)/C(C)=C/C=C\C(C)C(OC(N)=O)/C(C)=C/C(C)C(OC)C(O)CC1C (centres unmarked) [E-5-R] | 50 to 100 (≈ 91.5 to 183 µM) | 50 to 100 (≈ 91.5 to 183 µM) | 100 to 200 | lower toxicity | low toxicity |
